Series [1] concerns Key Broadleaf Weed and Crop Species. The series can be described thus: Post-emergent Test II herbicidal activity (Table 15). The settings on record: post-emergence, 336 h, 14 d; for pest or weed control at 140 g/ha: 140 g ai/ha; for pest or weed control at 35 g/ha: 35 g ai/ha; for pest or weed control at 70 g/ha: 70 g ai/ha. It is filed as in vivo. As to the method: (§1) Post-emergent Test II: Seeds or nutlets of the desired test plant species were planted in Sun Gro Metro-Mix® 360 planting mixture, which typically has a pH of 6.0 to 6.8 and an organic matter content of about 30 percent, in plastic pots with a surface area of 64 square centimeters. When required to ensure good germination and healthy plants, a fungicide treatment and/or other chemical or physical treatment was applied. The plants were grown for 7-21 d in a greenhouse with an approximate 15 h photoperiod which was maintained at about 23-29° C. during the day and 22-28° C. during the night. Nutrients and water were added on a regular basis and supplemental lighting was provided with overhead metal halide 1000-Watt lamps as necessary. The plants were employed for testing when they reached the first or second true leaf stage.
(§2) A weighed amount, determined by the highest rate to be tested, of each test compound was placed in a 25 mL glass vial and was dissolved in 4 mL of a 97:3 v/v mixture of acetone and DMSO to obtain concentrated stock solutions. […] The concentrated stock solutions obtained were diluted with 20 mL of an aqueous mixture containing acetone, water, isopropyl alcohol, DMSO, Atplus 411F crop oil concentrate, and Triton® X-155 surfactant in a 48.5:39:10:1.5:1.0:0.02 v/v ratio to obtain spray solutions containing the highest application rates. Additional application rates were obtained by serial dilution of 12 mL of the high rate solution into a solution containing 2 mL of 97:3 v/v mixture of acetone and DMSO and 10 mL of an aqueous mixture containing acetone, water, isopropyl alcohol, DMSO, Atplus 411F crop oil concentrate, and Triton X-155 surfactant in a 48.5:39:10:1.5:1.0:0.02 v/v ratio to obtain 1/2×, 1/4×, 1/8× and 1/16× rates of the high rate. Compound requirements are based upon a 12 mL application volume at a rate of 187 liters per hectare (L/ha). Formulated compounds were applied to the plant material with an overhead Mandel track sprayer equipped with 8002E nozzles calibrated to deliver 187 L/ha over an application area of 0.503 square meters at a spray height of 18 inches (43 cm) above the average plant canopy height. Control plants were sprayed in the same manner with the solvent blank.
(§3) The treated plants and control plants were placed in a greenhouse as described above and watered by subirrigation to prevent wash-off of the test compounds. After 14 d, the condition of the test plants as compared with that of the untreated plants was determined visually and scored on a scale of 0 to 100 percent where 0 corresponds to no injury and 100 corresponds to complete kill.

Series [2] concerns Key Grass and Sedge Weeds as well as Grass Crops. Briefly: Post-emergent Test II herbicidal activity (Table 16). It is filed as in vivo. To be noted: post-emergence, 336 h, 140 g ai/ha. As to the method:
as §1, §2, §3

The mark [3] stands for this setting: Abutilon theophrasti, velvetleaf (Abutilon theophrasti), read-out: Visual Growth Reduction (%) 14 Days After Application, ABUTH.
Setting [4] is: Amaranthus retroflexus, redroot pigweed (Amaranthus retroflexus), read-out: Visual Growth Reduction (%) 14 Days After Application, AMARE.
The mark [5] stands for this setting: Brassica napus, oilseed rape, canola (Brassica napus), read-out: Visual Growth Reduction (%) 14 Days After Application, BRSNN.
Where [6] appears, read: Chenopodium album, lambsquarters (Chenopodium album), read-out: Visual Growth Reduction (%) 14 Days After Application, CHEAL.
[7] abbreviates: Euphorbia heterophylla, wild poinsettia (Euphorbia heterophylla), read-out: Visual Growth Reduction (%) 14 Days After Application, EPHHL.
Setting [8] is: Helianthus annuus, sunflower (Helianthus annuus), read-out: Visual Growth Reduction (%) 14 Days After Application, HELAN.
The mark [9] stands for this setting: Cyperus esculentus, yellow nutsedge (Cyperus esculentus), 14 days after application, read-out: Visual Growth Reduction (%) 14 Days After Application CYPES.
Where [10] appears, read: Echinochloa crus-galli, barnyardgrass (Echinochloa crus-galli), 14 days after application, read-out: Visual Growth Reduction (%) 14 Days After Application ECHCG.
[11] abbreviates: Oryza sativa, rice (Oryza sativa), 14 days after application, read-out: Visual Growth Reduction (%) 14 Days After Application ORYSA.
Setting [12] is: Setaria faberi, giant foxtail (Setaria faberi), 14 days after application, read-out: Visual Growth Reduction (%) 14 Days After Application SETFA.
Setting [13] is: Triticum aestivum, wheat, spring (Triticum aestivum), 14 days after application, read-out: Visual Growth Reduction (%) 14 Days After Application TRZAS.
The mark [14] stands for this setting: Zea mays, maize, corn (Zea mays), 14 days after application, read-out: Visual Growth Reduction (%) 14 Days After Application ZEAMX.

The values below come from patent US20170050957A1, “4-AMINO-6-(HETEROCYCLIC)PICOLINATES AND 6-AMINO-2-(HETEROCYCLIC)PYRIMIDINE-4-CARBOXYLATES AND THEIR USE AS HERBICIDES” (Dow AgroSciences LLC, priority 2013, published 2017).

What is called melting point is the temperature of the solid-liquid transition.

Where two headings read alike, the source gives them in different places.

Regarding `Nc1c(F)c(-c2cccc3occc23)nc(C(=O)O)c1Cl` [Compound 2.17], the melting point is 170 to 173 °C. In series [1] (setting [3]), the pest or weed control at 140 g/ha lay in the range of 75 to 84%. In addition, the pest or weed control at 140 g/ha in series [1] (setting [4]) lay within 95 to 100%. Besides, the pest or weed control at 140 g/ha in series [1] (setting [5]) was in the range of 75 to 84%. Besides, in series [1] (setting [6]), the pest or weed control at 140 g/ha fell in the range of 95 to 100%. Besides, in series [1] (setting [7]), the pest or weed control at 140 g/ha lay within 95 to 100%. Moreover, the pest or weed control at 140 g/ha in series [1] (setting [8]) lay within 85 to 94%. In addition, in series [2] (Cyperus esculentus, yellow nutsedge (Cyperus esculentus), 14 d, read-out: Visual Growth Reduction (%) 14 Days After Application, CYPES), the pest or weed control at 140 g/ha is 95 to 100%. In addition, the pest or weed control at 140 g/ha in series [2] (Echinochloa crus-galli, barnyardgrass (Echinochloa crus-galli), 14 d, read-out: Visual Growth Reduction (%) 14 Days After Application, ECHCG) lay in the range of 75 to 84%. The pest or weed control at 140 g/ha in series [2] (Oryza sativa, rice (Oryza sativa), 14 d, read-out: Visual Growth Reduction (%) 14 Days After Application, ORYSA) lay in the range of 0 to 29%. In addition, the pest or weed control at 140 g/ha in series [2] (Setaria faberi, giant foxtail (Setaria faberi), 14 d, read-out: Visual Growth Reduction (%) 14 Days After Application, SETFA) fell in the range of 0 to 29%. Also, the pest or weed control at 140 g/ha in series [2] (Triticum aestivum, wheat, spring (Triticum aestivum), 14 d, read-out: Visual Growth Reduction (%) 14 Days After Application, TRZAS) was 0 to 29%. In addition, in series [2] (Zea mays, maize, corn (Zea mays), 14 d, read-out: Visual Growth Reduction (%) 14 Days After Application, ZEAMX), the pest or weed control at 140 g/ha was 30 to 44%.

Consider `Nc1c(F)c(-c2cccc3ccsc23)nc(C(=O)O)c1Cl` [Compound 3.25], for which the melting point was in the range of 183 to 185 °C. Moreover, in series [1] (setting [3]), the pest or weed control at 140 g/ha lay in the range of 0 to 29%. The pest or weed control at 140 g/ha in series [1] (setting [4]) was in the range of 95 to 100%. In addition, the pest or weed control at 140 g/ha in series [1] (setting [5]) lay within 75 to 84%. Further, the pest or weed control at 140 g/ha in series [1] (setting [6]) is 95 to 100%. The pest or weed control at 140 g/ha in series [1] (setting [7]) was in the range of 0 to 29%. For the same compound, the pest or weed control at 140 g/ha in series [1] (setting [8]) was 45 to 59%. Also, the pest or weed control at 140 g/ha in series [2] (setting [9]) was in the range of 0 to 29%. The pest or weed control at 140 g/ha in series [2] (setting [10]) lay within 0 to 29%. In addition, the pest or weed control at 140 g/ha in series [2] (setting [11]) lay within 0 to 29%. Further, the pest or weed control at 140 g/ha in series [2] (setting [12]) lay in the range of 0 to 29%. Besides, the pest or weed control at 140 g/ha in series [2] (setting [13]) was 0 to 29%. Also, in series [2] (setting [14]), the pest or weed control at 140 g/ha was 0 to 29%.

Consider `Nc1c(Cl)c(C(=O)O)nc(-c2ccc3cc[nH]c3c2)c1Cl` [Compound 1.06], for which the melting point is 160 to 164 °C. Also, in series [1] (setting [3]), the pest or weed control at 35 g/ha lay in the range of 0 to 29%, the pest or weed control at 70 g/ha was 0 to 29% and the pest or weed control at 140 g/ha was 0 to 29%. In series [1] (setting [4]), the pest or weed control at 35 g/ha is 95 to 100%, the pest or weed control at 70 g/ha fell in the range of 85 to 94% and the pest or weed control at 140 g/ha lay in the range of 75 to 84%. In series [1] (setting [5]), the pest or weed control at 35 g/ha was 75 to 84%, the pest or weed control at 70 g/ha fell in the range of 85 to 94% and the pest or weed control at 140 g/ha lay in the range of 85 to 94%. Moreover, in series [1] (setting [6]), the pest or weed control at 35 g/ha lay within 85 to 94%, the pest or weed control at 70 g/ha is 95 to 100% and the pest or weed control at 140 g/ha was 95 to 100%. In series [1] (setting [7]), the pest or weed control at 35 g/ha is 0 to 29%, the pest or weed control at 70 g/ha is 0 to 29% and the pest or weed control at 140 g/ha lay within 0 to 29%. In addition, in series [1] (setting [8]), the pest or weed control at 35 g/ha is 0 to 29%, the pest or weed control at 70 g/ha was in the range of 0 to 29% and the pest or weed control at 140 g/ha was in the range of 0 to 29%.

As to `COC(=O)c1nc(-c2ccc3cnn(C)c3c2)c(F)c(N)c1Cl` [Compound 4.07], the melting point is 187 to 190 °C. The pest or weed control at 140 g/ha in series [1] (setting [3]) was in the range of 45 to 59%. The pest or weed control at 140 g/ha in series [1] (setting [5]) fell in the range of 45 to 59%. Besides, the pest or weed control at 140 g/ha in series [1] (setting [6]) was in the range of 0 to 29%. In addition, in series [1] (setting [7]), the pest or weed control at 140 g/ha lay in the range of 60 to 74%. In addition, the pest or weed control at 140 g/ha in series [1] (setting [8]) was 95 to 100%. In addition, the pest or weed control at 140 g/ha in series [2] (setting [9]) lay within 0 to 29%. Also, in series [2] (setting [10]), the pest or weed control at 140 g/ha lay in the range of 0 to 29%. Further, the pest or weed control at 140 g/ha in series [2] (setting [11]) fell in the range of 0 to 29%. Besides, the pest or weed control at 140 g/ha in series [2] (setting [12]) fell in the range of 0 to 29%. Besides, in series [2] (setting [13]), the pest or weed control at 140 g/ha was 0 to 29%. For the same compound, in series [2] (setting [14]), the pest or weed control at 140 g/ha lay within 0 to 29%.

In the case of `COC(=O)c1nc(-c2ccc(Cl)c3cc[nH]c23)cc(N)c1Cl` [Compound 1.49], the melting point was in the range of 186 to 188 °C. In series [1] (setting [3]), the pest or weed control at 35 g/ha lay within 85 to 94%, the pest or weed control at 70 g/ha is 85 to 94% and the pest or weed control at 140 g/ha lay within 85 to 94%. For the same compound, in series [1] (setting [4]), the pest or weed control at 35 g/ha fell in the range of 0 to 29%, the pest or weed control at 70 g/ha was 30 to 44% and the pest or weed control at 140 g/ha lay within 0 to 29%. For the same compound, in series [1] (setting [5]), the pest or weed control at 35 g/ha lay in the range of 0 to 29%, the pest or weed control at 70 g/ha fell in the range of 0 to 29% and the pest or weed control at 140 g/ha lay in the range of 0 to 29%. Also, in series [1] (setting [6]), the pest or weed control at 35 g/ha lay in the range of 85 to 94%, the pest or weed control at 70 g/ha was in the range of 85 to 94% and the pest or weed control at 140 g/ha is 95 to 100%. In addition, in series [1] (setting [7]), the pest or weed control at 35 g/ha lay in the range of 0 to 29%, the pest or weed control at 70 g/ha lay within 0 to 29% and the pest or weed control at 140 g/ha lay within 0 to 29%. In addition, in series [1] (setting [8]), the pest or weed control at 35 g/ha lay in the range of 0 to 29%, the pest or weed control at 70 g/ha lay within 0 to 29% and the pest or weed control at 140 g/ha was in the range of 45 to 59%.
